Assay: wn = mass fraction of the nth substance listed
Conditions: 101.33 kPa, Liquid

CC(C)(N)CO [2-amino-2-methylpropan-1-ol] + O
w1 = 0.3
Conditions	mass density [kg/m3]	viscosity [mPa·s]
298 K	997	3.637
303 K	994.2	2.964
308 K	991.4	2.446
313 K	988.4	2.043
318 K	985.4	1.696
323 K	982.1	1.425
328 K	978.8	1.237
333 K	975.5	1.081

C1CNCCN1 [piperazine] + O
Conditions	mass density, w1 = 0.0174 [kg/m3]	mass density, w1 = 0.0345 [kg/m3]	mass density, w1 = 0.0516 [kg/m3]	mass density, w1 = 0.0688 [kg/m3]	viscosity, w1 = 0.0174 [mPa·s]	viscosity, w1 = 0.0344 [mPa·s]	viscosity, w1 = 0.0516 [mPa·s]	viscosity, w1 = 0.0688 [mPa·s]
298 K	997.8	998.5	999.4	1000.6	0.957	1.021	1.09	1.169
303 K	996.5	997.2	998.1	999	0.861	0.915	0.965	1.035
308 K	995.1	995.7	996.5	997.6	0.776	0.805	0.865	0.91
313 K	993.2	994.1	994.7	995.6	0.681	0.718	0.763	0.821
318 K	991.4	992.2	992.5	993.8	0.623	0.652	0.703	0.731
323 K	989.3	990.2	990.4	991.4	0.573	0.592	0.624	0.663
328 K	986.7	987.4	988	989.1	0.543	0.543	0.569	0.604
333 K	984.2	984.5	985.7	987.4	0.488	0.505	0.523	0.546
